Experimental data from patent US3987177A, “Vincaminic acid esters” (Synthelabo, priority 1974, dated 1976).
Structures can show the parent of a compound that is named as a salt. Where two headings read alike, the source gives them in different places.

Columns and labels:
[1] = Acute toxicity (50% lethal dose) in mice; type: in vivo; details: mouse, in vivo
mice of the strain CD1 = experiment: Acute toxicity (50% lethal dose) in mice; type: in vivo; details: for toxicity compared to vincamine, lower by a factor, intraperitoneal: intraperitoneally; for toxicity compared to vincamine, lower by a factor, intraperitoneal / toxicity compared to vincamine, lower by a factor, oral: factor vs vincamine; for toxicity compared to vincamine, lower by a factor, oral: orally
Mice of the CD1 strain = experiment: Anoxia test on mice under low (oxygen) pressure conditions; type: in vivo; details: for Protective activity in the anoxia test under reduced pressure conditions, MAD (mean active dose, increases the survival time by 100%): CD1 mice, intraperitoneally 10 minutes before the test, 190 mm of mercury (5.25% oxygen), expressed as the base; for anti-anoxia activity compared to vincamine: mice, in words
Description: Mice of the CD1 strain are kept in an atmosphere depleted in oxygen, by producing a partial vacuum (190 mm of mercury, corresponding to 5.25% of oxygen).
The survival time of the animals is noted. This time is increased by agents capable of assisting tissue oxygenation and in particular cerebal oxygenation. The compounds studied are administered in several doses intraperitoneally 10 minutes before the test. The percentage increases in the survival time relative to the values obtained with comparison animals are calculated. The mean active dose (MAD), the dose which increases the survival time by 100%, is determined graphically.

Water solubility = type: physicochemical; details: methylsulphonic acid salt
femoral artery of dogs = details: in words; no test or source given; cited from earlier work
[2] = ip, CD1 mice, intraperitoneal, mortality recorded for 7 days, read-out: Acute toxicity LD50, intraperitoneal
[3] = mice, oral, read-out: Acute toxicity LD50, oral

Question: For CCC12C=C(C(=O)OC3CC(C)CC(C)(C)C3)n3c4c(c5ccccc53)CCN(CCC1)C42 (centres unmarked) [Example 3, methylsulphonic acid salt of 3,3,5-trimethylcyclohexyl apovincaminate], which LD50 at 168 h [1, 2] is on record?
Answer: 440 mg/kg

Question: What about the LD50 at 168 h [1, 3] of the same compound?
Answer: 2800 mg/kg

Question: And the “toxicity compared to vincamine, lower by a factor, intraperitoneal” value (mice of the strain CD1; mice)?
Answer: 2

Question: What about the “toxicity compared to vincamine, lower by a factor, oral” value (mice of the strain CD1; mice) of the same compound?
Answer: about 5

Question: What about the “Protective activity in the anoxia test under reduced pressure conditions, MAD (mean active dose, increases the survival time by 100%)” value (Mice of the CD1 strain) of the same compound?
Answer: 5 mg/kg

Question: What about the “anti-anoxia activity compared to vincamine” value (Mice of the CD1 strain) of the same compound?
Answer: markedly greater than that of vincamine

Question: And the “water solubility (in words)” value (Water solubility)?
Answer: water-soluble

Question: Which results are given for CC[C@@]12C=C(C(=O)OC3CC(C)CC(C)(C)C3)n3c4c(c5ccccc53)CCN(CCC1)[C@H]42.Cl (some centres unmarked) [Example 1, 3,3,5-Trimethylcyclohexyl apovincaminate]?
Answer: Acute toxicity LD50, intraperitoneal (mice of the strain CD1; CD1 mice, intraperitoneal, mortality recorded for 7 days): 430 mg/kg; toxicity compared to vincamine, lower by a factor, intraperitoneal (mice of the strain CD1; mice): 2; Acute toxicity LD50, oral (mice of the strain CD1; mice, oral, 10080 min): 2100 mg/kg; toxicity compared to vincamine, lower by a factor, oral (mice of the strain CD1; mice): about 5; Protective activity in the anoxia test under reduced pressure conditions, MAD (mean active dose, increases the survival time by 100%) (Mice of the CD1 strain): 5.5 mg/kg; anti-anoxia activity compared to vincamine (Mice of the CD1 strain): markedly greater than that of vincamine

Question: Which LD50 at 168 h [1, 2] does the source give for CC[C@]12CCCN3CCc4c(n(c5ccccc45)[C@@](O)(C(=O)OC)C1)[C@@H]32 [Vincamine, reference compound] here?
Answer: 215 mg/kg

Question: And the LD50 at 168 h [1, 3]?
Answer: 460 mg/kg

Question: What about the “Protective activity in the anoxia test under reduced pressure conditions, MAD (mean active dose, increases the survival time by 100%)” value (Mice of the CD1 strain) of the same compound?
Answer: 8 mg/kg

Question: What about the “vasodilating activity compared to papaverine (known compounds)” value (femoral artery of dogs) of the same compound?
Answer: at most equal to that of papaverine
